From patent publication US9296631B2, “Preparation of environmentally acceptable scale inhibitors” (Ecolab USA Inc., priority 2008, dated 2016)

Tests used:
[1] = OECD 306 biodegradation test, closed bottle method; conditions: percent of measured COD, no substrate, acidic, non-neutralized form; for BIODEGRADATION by OECD 306 Max, 28 d (%): 28 days; for BIODEGRADATION by OECD 306 Max, 63 d (%): 63 days
Method: Full details of the procedure and methods of calculation are publicly available in OECD documents. In all cases, the tests were performed without a substrate and the percent biodegradation was determined as a percentage of the measured chemical oxygen demand (COD).
Each of the datasets presented in Table 1 and FIGS. 2 through 5 were obtained on the products as described in their acidic, non-neutralized forms.

[2] = Scale inhibitor performance, dynamic loop method; conditions: Field I brine, 128 C, pH 7.7, 10 mL/min; hold time 1 hour
Text: A number of scale inhibitor performance tests were undertaken using the dynamic loop method. This method is widely used in the oilfield service industry and is designed to evaluate the ability of a candidate scale inhibitor to delay the blockage of a small diameter metal capillary when injected with a scaling brine at constant flow rate under selected test conditions. The test conditions and water compositions are generally selected to represent, at least in-part, the process conditions under which a scale inhibitor might be deployed. The flow rate of the test brine is generally selected to allow the experiment to be performed in a repeatable and controlled manner. […]
Typically, one or more tests without any added scale inhibitor (blank tests) were performed in order to determine the scaling time for the un-inhibited brine under the given test conditions. […] The deposition of scale was monitored by measuring the differential pressure (ΔP) developed across the test capillary over time. […] Alternatively, the concentration of the scale inhibitor can be reduced step-wise and the minimum inhibitor concentration (MIC) required for preventing a given increase in ΔP over a given time period can be determined. […]
To prepare the test water, each water composition was divided into two parts. […] The pH of the individual waters was also measured and adjusted. […]

O=P(O)(O)CN(CCCCCCN(CP(=O)(O)O)CP(=O)(O)O)CCCCCCN(CP(=O)(O)O)CP(=O)(O)O [BHMTPA, bis(hexamethylene) triamine penta(methylene phosphonic acid)]
BIODEGRADATION by OECD 306 Max, 28 d (%) [1]: 6%

O=P(O)(O)CN(CCN(CP(=O)(O)O)CP(=O)(O)O)CCN(CP(=O)(O)O)CP(=O)(O)O [DETA, diethylene triamine penta(methylene phosphonic acid)]
MIC Field I (ppm) [2]: 6-8 ppm
BIODEGRADATION by OECD 306 Max, 28 d (%) [1]: 0%
BIODEGRADATION by OECD 306 Max, 28 d (%) ([1]; listed as Phosphonate 1): 0%

O=P(O)(O)CN(CCO)CP(=O)(O)O [MEA, monoethanolamine bis(methylene phosphonic acid)]
BIODEGRADATION by OECD 306 Max, 28 d (%) [1]: 6%
BIODEGRADATION by OECD 306 Max, 63 d (%) [1]: 3%

O=P(O)(O)CN(CCN(CCN(CP(=O)(O)O)CP(=O)(O)O)CP(=O)(O)O)CCN(CP(=O)(O)O)CP(=O)(O)O [TETHMPA, tri-ethylene tetra amine hexa(methylene phosphonic acid)]
BIODEGRADATION by OECD 306 Max, 28 d (%) [1]: 0%

BAEE
BIODEGRADATION by OECD 306 Max, 28 d (%) [1]: 0%
BIODEGRADATION by OECD 306 Max, 63 d (%) [1]: 5%
